{
  "source": "patent US20110166223A1",
  "about": "“METHODS OF INHIBITING FGFR3 SIGNALING” (CEDARS-SINAI MEDICAL CENTER, priority 2008, published 2011)",
  "key": {"[1]": {"test_system": "FGF2/FGFR3-mediated growth-arrest of rat chondrosarcoma (RCS) cells", "conditions": "previous work [9, 12]; cited from earlier work"}, "[2]": {"target": "T1, recombinant tyrosine kinase (TK) domain of FGFR3 (Homo sapiens, UniProt P22607)", "T1 construct": "recombinant tyrosine kinase (TK) domain of FGFR3 (Glu-322-Thr-806; Cell Signaling); purchased Cell Signaling", "T1 sequence (P22607 322-806)": "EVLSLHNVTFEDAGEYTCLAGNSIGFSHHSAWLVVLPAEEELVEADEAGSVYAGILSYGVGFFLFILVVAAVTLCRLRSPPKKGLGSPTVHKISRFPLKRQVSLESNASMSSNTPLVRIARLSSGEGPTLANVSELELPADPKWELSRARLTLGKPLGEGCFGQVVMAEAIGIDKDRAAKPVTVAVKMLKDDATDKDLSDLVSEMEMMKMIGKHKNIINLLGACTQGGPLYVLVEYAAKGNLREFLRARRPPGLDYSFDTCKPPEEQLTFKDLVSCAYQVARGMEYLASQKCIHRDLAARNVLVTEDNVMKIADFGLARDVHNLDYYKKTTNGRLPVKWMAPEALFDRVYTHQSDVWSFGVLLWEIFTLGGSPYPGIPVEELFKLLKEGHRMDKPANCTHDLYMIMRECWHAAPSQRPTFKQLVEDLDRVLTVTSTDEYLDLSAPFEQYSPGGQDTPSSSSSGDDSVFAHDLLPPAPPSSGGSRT", "conditions": "previous work [9, 12]; cited from earlier work"}, "[3]": {"test_system": "FGF2/FGFR3-mediated growth-arrest of rat chondrosarcoma (RCS) cells", "from_the_text": "In this assay, the FGF2/FGFR3-mediated growth-arrest of rat chondrosarcoma (RCS) cells is used as a reporter, thus allowing for elimination of toxic compounds as false-positive hits (Krejci, et al., Invest New Drugs 2007, 25: 391-395).\nRat chondrosarcoma chondrocytes (RCS), chinese hamster ovary (CHO) cells and MM cell lines OPM2 and KMS11 were propagated in DMEM, Opti-MEM or RPMI media (Gibco, Gaitherbsburg, Md.), supplemented with 10% fetal bovine serum (Atlanta Biological, Nordeross, Ga.) and antibiotics. […] For the RCS growth-arrest experiments shown at FIGS. 1 and 4c, 1×10^4 RCS chondrocytes were seeded in 24-well tissue culture plates (Costar, Cambridge, Mass.), treated as indicated for 72 hours, and counted. FGF2 was obtained from R&D Systems (Minneapolis, Minn.); C-natriuretic peptide, suramin, NF023 and NF449 were from Calbiochem (San Diego, Calif.)."}, "[4]": {"target": "T1, recombinant tyrosine kinase (TK) domain of FGFR3", "test": "Cell-free FGFR3 kinase assay with STAT1 as substrate", "format": "biochemical", "conditions": "added directly to the kinase reaction; FIG. 4", "experimental": "FIG. 4, in accordance with an embodiment herein, depicts 4,4′,4″,4′″-[carbonyl-bis[imino-5,1,3-benzenetriyl bis-{carbonylimino}]]tetrakis-{benzene-1,3-disulfonic acid} inhibits FGFR3 activity in a kinase assay. (a, b) Cell-free kinase assays were carried out as described herein, with recombinant tyrosine kinase (TK) domain of FGFR3 as a kinase, recombinant STAT1 as a substrate, and NF449 added directly to the kinase reaction. FGFR3-mediated phosphorylation of STAT1 was detected by WB with P-STAT1 (Y^701) antibody. The membrane was reprobed with FGFR3 and STAT1 antibodies to control for kinase and substrate quantity. The sample with ATP omitted serves as a negative control for the kinase reaction. Note the FGFR3-mediated phosphorylation of STAT1 is inhibited by 4,4′,4″,4′″-[carbonyl-bis[imino-5,1,3-benzenetriyl bis-{carbonylimino}]]tetrakis-{benzene-1,3-disulfonic acid}. The P-STAT1 and STAT1 signal was quantified by densitometry and expressed as a ratio between P-STAT1 and STAT1 signal for each given sample (b, lower graph). (c) The FGFR3 kinase assay was carried-out as described in (a) with 4,4′,4″,4′″-[carbonyl-bis[imino-5,1,3-benzenetriyl bis-{carbonylimino}]]tetrakis-{benzene-1,3-disulfonic acid}, 8,8′-[carbonylbis[imino-3,1-phenylenecarbonylimino{4-methyl-3,1-phenylene}carbonylimino]]bis-1,3,5-naphthalenetrisulfonic acid or 8,8′-[carbonylbis[imino-3,1-phenylene]]bis-{1,3,5-naphthalenetrisulfonic acid} added to the kinase reaction. Note the differential effects of 8,8′-[carbonylbis[imino-3,1-phenylenecarbonylimino{4-methyl-3,1-phenylene}carbonylimino]]bis-1,3,5-naphthalenetrisulfonic acid and 8,8′-[carbonylbis[imino-3,1-phenylene]]Bis-{1,3,5-naphthalenetrisulfonic acid} on the FGFR3-mediated phosphorylation of STAT1, which corresponds to their activity in the RCS growth-arrest experiment (lower graph). Data are an average from four wells with the indicated standard deviation. Statistically significant rescue of the growth arrest is indicated (Student's I-test; *-p<0.01).\nOPM2 and KMS11 cells were lysed in ice-cold immunoprecipitation buffer (50 mM Tris-HCl pH 7.4, 150 mM NaCl, 0.5% NP-40, 1 mM EDTA, 25 mM NaF) supplemented with proteinase inhibitors and 10 mM sodium orthovanadate. Protein samples were resolved by SDS-PAGE and transferred onto a PVDF membrane. The following antibodies were used: Erk1/2, P-Erk1/2^T202/Y204, STAT1, P-STAT1^Y701 (Cell Signaling, Beverly, Mass.) and FGFR3 (Santa Cruz Biotechnology, Santa Cruz, Calif.). Western blotting signal was quantified by determining the integrated optical density (I.O.D.) of a given band using Scion Image software (Scion Corporation, Frederick, Mass.). Immunoprecipitations and FGFR3 kinase assays were performed as described. Briefly, the pRK7 vector encoding C-terminally FLAG-tagged K650E-FGFR3 was transfected into CHO cells using FuGENE6 reagent according to the manufacturer's protocol (Roche Applied Science, Indianapolis, Ind.). 48 hours after transfection, cells were treated with 20 ng/ml of FGF2 for 15 minutes and K650E-FGFR3 was immunoprecipitated from 800 μg of cell lysate protein using 4 μg of anti-FLAG antibody (Sigma-Aldrich, St. Louis, Mo.). Cells transfected with a plasmid encoding green fluorescent protein (pCCEY) serve as a negative control for the immunoprecipitation. Immunocomplexes were washed two times with kinase buffer (60 mM HEPES-NaOH pH 7.5, 3 mM MgCl2, 3 mM MnCl2, 3 μM Na3VO4, 1.2 mM dithiothreitol), and the kinase reactions were performed for 30 minutes at 30° C. in the presence of 2.5 μg of polyethylene glycol, 10 μM ATP, 300 ng of recombinant STAT1 (Active Motif, Carlsbad, Calif.) as a substrate, and NF449 added directly to the kinase reaction. Kinase assays utilizing recombinant tyrosine kinase (TK) domain of FGFR3 (Glu-322-Thr-806; Cell Signaling) were carried-out similarly, with 300 ng of kinase used in 50 μl reaction, and suramin, NF449 and NF023 added directly to the kinase reaction. […]"}},
  "data": [
    {"molecule": "Cc1c[nH]c(/C=C2\\C(=O)Nc3ccccc32)c1CCC(=O)O", "note": "[SU5402]", "values": [
      {"measurement": "concentration range inhibiting RCS growth arrest", "setting": "[1]", "value": "2 to 20", "unit": "µM"},
      {"measurement": "concentration range inhibiting FGFR3 kinase activity", "setting": "[2]", "value": "2 to 20", "unit": "µM"}
    ]},
    {"molecule": "Cc1ccc(C(=O)Nc2ccc(S(=O)(=O)O)c3cc(S(=O)(=O)O)cc(S(=O)(=O)O)c23)cc1NC(=O)c1cccc(NC(=O)Nc2cccc(C(=O)Nc3cc(C(=O)Nc4ccc(S(=O)(=O)O)c5cc(S(=O)(=O)O)cc(S(=O)(=O)O)c45)ccc3C)c2)c1", "note": "[suramin, 8,8′-[carbonylbis[imino-3,1-phenylenecarbonylimino{4-methyl-3,1-phenylene}carbonylimino]]bis-1,3,5-naphthalenetrisulfonic acid, reference compound]", "values": [
      {"measurement": "effect on FGF2/FGFR3-mediated growth arrest (in words)", "setting": "[3]; RCS chondrocytes, FIGS. 1, 4c", "value": "reversed the FGF2/FGFR3-mediated growth arrest"},
      {"measurement": "effect on FGFR3 kinase activity (in words)", "setting": "[4]", "value": "inhibited FGFR3 kinase activity"}
    ]},
    {"molecule": "C-natriuretic peptide [CNP, reference compound]", "values": [
      {"measurement": "rescue of the FGF2-mediated RCS growth-arrest", "setting": "[3]; FIG. 1b, each agent alone, 72 hours", "value": "~23", "unit": "%"}
    ]}
  ]
}
